For experiment [1], the target named is T1, Lysine-specific histone demethylase 1A (Homo sapiens, UniProt O60341). The experiment is described as follows: Inhibition of full length human fusion His6 tagged LSD1 expressed in Escherichia coli BL21(DE3) cells using H3K4me2 peptide substrate preincubated for 5 mins by peroxidase-coupled method.
The subject of experiment [2] is HeLa. The experiment is described as follows: Antiproliferative activity against human HeLa cells assessed as growth inhibition after 48 h by MTT assay. The experiment is classed as functional. In general terms: Formazan colour is commonly taken as a measure of viable cells.
Experiment [3] deals with SH-SY5Y. The experiment is described as follows: Antiproliferative activity against human SH-SY5Y cells assessed as growth inhibition after 48 h by MTT assay. It is filed as functional.
The target in experiment [4] is T1, Lysine-specific histone demethylase 1A. Briefly: Potency index, ratio of IC50 for NCL1 to IC50 for test compound against full length human fusion His6 tagged LSD1 expressed in Escherichia coli BL21(DE3) cells.
The target is the same in experiment [5]. The experiment is described as follows: Inhibition of LSD1 in human SH-SY5Y cells assessed as induction of H3K4me2 accumulation at 10 uM after 24 hrs by Western blot method. It is filed as cell-based. Background: A western blot detects proteins with antibodies after separation by electrophoresis.
Experiment [6] has the same target. Briefly: Inhibition of LSD1 in human SH-SY5Y cells assessed as induction of H3K4me2 accumulation at 30 uM after 24 hrs by Western blot method. The experiment is classed as cell-based.
In experiment [7] the target is T2, Amine oxidase [flavin-containing] A (Homo sapiens, UniProt P21397).
T2 sequence (P21397 whole entry): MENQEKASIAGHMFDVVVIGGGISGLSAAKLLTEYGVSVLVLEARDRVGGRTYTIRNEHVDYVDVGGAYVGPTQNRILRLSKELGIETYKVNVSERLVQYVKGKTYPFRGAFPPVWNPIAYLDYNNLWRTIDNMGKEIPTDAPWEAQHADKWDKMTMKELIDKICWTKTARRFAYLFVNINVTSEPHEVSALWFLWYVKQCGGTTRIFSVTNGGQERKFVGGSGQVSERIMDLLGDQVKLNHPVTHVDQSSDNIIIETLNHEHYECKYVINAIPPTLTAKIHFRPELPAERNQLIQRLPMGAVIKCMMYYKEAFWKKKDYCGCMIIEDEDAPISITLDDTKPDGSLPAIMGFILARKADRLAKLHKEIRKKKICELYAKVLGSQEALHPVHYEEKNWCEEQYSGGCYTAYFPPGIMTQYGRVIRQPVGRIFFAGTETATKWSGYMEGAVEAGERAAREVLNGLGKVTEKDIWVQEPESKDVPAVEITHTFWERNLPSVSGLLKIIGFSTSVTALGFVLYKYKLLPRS
Briefly: Inhibition of MAOA (unknown origin).

In experiment [8] the target is T1, Lysine-specific histone demethylase 1A. Briefly: Time-dependent inhibition of full length human fusion His6 tagged LSD1 expressed in Escherichia coli BL21(DE3) cells using H3K4me2 peptide substrate preincubated for 5 mins by peroxidase-coupled method.
Experiment [9] shares this target. The experiment is described as follows: Time-dependent inhibition of full length human fusion His6 tagged LSD1 expressed in Escherichia coli BL21(DE3) cells assessed as enzyme inactivation using H3K4me2 peptide substrate preincubated for 5 mins by peroxidase-coupled method.
The target is the same in experiment [10]. Briefly: Inhibition of full length human fusion His6 tagged LSD1 expressed in Escherichia coli BL21(DE3) cells assessed as FAD-NCL1 adduct formation at 100 uM incubated for 22 hrs by MALDI-TOF mass spectrometry.
Experiment [11] addresses T3, Amine oxidase [flavin-containing] B (Homo sapiens, UniProt P27338).
T3 sequence (P27338 whole entry): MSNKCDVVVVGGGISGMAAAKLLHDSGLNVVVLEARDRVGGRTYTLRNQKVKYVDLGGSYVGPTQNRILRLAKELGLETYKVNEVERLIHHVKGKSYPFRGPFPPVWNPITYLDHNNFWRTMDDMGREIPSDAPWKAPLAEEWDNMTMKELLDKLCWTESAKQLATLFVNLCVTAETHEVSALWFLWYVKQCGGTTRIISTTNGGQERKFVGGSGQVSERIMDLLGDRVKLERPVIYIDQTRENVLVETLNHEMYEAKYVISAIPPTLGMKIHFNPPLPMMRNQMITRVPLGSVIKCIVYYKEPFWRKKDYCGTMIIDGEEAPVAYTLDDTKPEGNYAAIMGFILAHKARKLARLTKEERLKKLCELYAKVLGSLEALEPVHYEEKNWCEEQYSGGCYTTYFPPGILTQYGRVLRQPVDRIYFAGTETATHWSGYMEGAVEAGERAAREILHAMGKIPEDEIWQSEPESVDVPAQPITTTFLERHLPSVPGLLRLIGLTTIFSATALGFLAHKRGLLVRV
Briefly: Inhibition of MAOB (unknown origin).

The text below walks through data of ChEMBL document CHEMBL3734748, “Design, synthesis, and biological activity of N-alkylated analogue of NCL1, a selective inhibitor of lysine-specific demethylase 1” (Medchemcomm, 2015).

The source made the active and inactive calls. No cut-off for these calls is given here.

What is called IC50 is the concentration at which inhibition is half-maximal. The low end stands for greater potency, the high end for weaker potency. For orientation: GI50 means the concentration that inhibits growth by half.

In experiment [1], `CN1CCN(C(=O)CNC2CC2c2cccc(O)c2)CC1` (configuration not stated) yielded an IC50 of 2.4 µM. In addition, the GI50 in experiment [2] and in experiment [3] was more than 240 µM in each case.

On to `NC1CC1c1cccc(OCC[C@H](NC(=O)c2ccccc2)C(=O)NCc2ccccc2)c1` (some centres not stated), for which the figures for the GI50 in [2] and in experiment [3] were 13 µM and 27 µM, respectively.

Consider `CN1CCN(C(=O)CNC2CC2c2cccc(OCC[C@H](NC(=O)c3ccccc3)C(=O)NCc3ccccc3)c2)CC1` (some centres not stated), for which, in experiment [4], the Ratio IC50 turned out to be 6. The IC50 in [1] is 0.38 µM; in experiment [7] it was more than 100 µM; in experiment [11], more than 100 µM. The GI50 in [2] is 109 µM; in [3] it was 42 µM. Also, the inhibition result in experiment [5], in [6] and in [10] was “Active” each time. For the same compound, the Ki in experiment [8] turned out to be 2.4 µM. Also, the inhibition result in [8] (TDE = time-dependent effect) was “tde”. In addition, in experiment [9], the Kinact turned out to be 0.0035 s⁻¹.
